Inhibition of clotting and bleeding on overdosing data for one substance are collected here from patent US20070042959A1, “Thrombin-inhibiting peptides” (priority 1997, published 2007).

Data set [1] deals with blood clotting (human citrate plasma). As to the kind of experiment: activated partial thromboplastin time (APTT), action on blood clotting. The note with it: at low concentrations; pre-clinical data, see sample application 1. It is filed as biochemical. How it is done:
The action of triabin and hirudin on blood clotting was measured by determining the activated partial thromboplastin time (APTT). 100 μl of human citrate plasma, 10 μl of inhibitor (triabin or hirudin) and 100 μl of APTT reagent (pathromtin from the Behring Company) were incubated for 3 minutes at 37° C. After 100 μl of a 25 mmol CaCl2 solution was added, the time until clots formed was measured. The measuring was carried out in a fibrometer of the Sarstedt Company. The results are indicated in an extension of the clotting time, which was measured without adding inhibitor.

For data set [2] the following is noted: clinical studies; easily overdosed; cited from earlier work.

Consider hirudin, for which the inhibition of clotting result in data set [1] is given as “inhibits at low concentrations”. Besides, in data set [2], the bleeding on overdosing entry is “severe bleeding complications”.
